Biological target: T1, Alpha-1D adrenergic receptor (Homo sapiens, UniProt P25100); note: in other assays of this panel Not Active means under 50% inhibition at 10 µM
T1 sequence (P25100 whole entry): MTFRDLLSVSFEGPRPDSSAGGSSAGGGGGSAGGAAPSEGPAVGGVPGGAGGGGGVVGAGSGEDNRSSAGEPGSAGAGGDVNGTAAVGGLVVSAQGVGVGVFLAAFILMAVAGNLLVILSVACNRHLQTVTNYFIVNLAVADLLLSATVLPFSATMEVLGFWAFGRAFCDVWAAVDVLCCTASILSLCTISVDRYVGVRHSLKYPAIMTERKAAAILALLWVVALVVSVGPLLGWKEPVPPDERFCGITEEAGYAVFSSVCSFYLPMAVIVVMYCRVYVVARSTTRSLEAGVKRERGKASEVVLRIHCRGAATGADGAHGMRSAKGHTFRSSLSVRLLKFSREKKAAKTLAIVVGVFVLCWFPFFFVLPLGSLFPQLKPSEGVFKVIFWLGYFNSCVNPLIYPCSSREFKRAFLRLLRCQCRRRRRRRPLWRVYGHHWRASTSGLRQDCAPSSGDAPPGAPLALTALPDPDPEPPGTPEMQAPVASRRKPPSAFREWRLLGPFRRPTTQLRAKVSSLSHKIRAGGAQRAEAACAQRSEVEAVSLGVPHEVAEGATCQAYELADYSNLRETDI
Assay: not given
Assay type: cell membranes, HEK293, Membrane
Conditions: hek293

Row | SMILES | IC50
1 | CNS(=O)(=O)Cc1ccc2[nH]cc(CCN(C)C)c2c1 | Not Active
2 | CCCc1nn(C)c2c(=O)[nH]c(-c3cc(S(=O)(=O)N4CCN(C)CC4)ccc3OCC)nc12 | Not Active
3 | CC1=C(CC(=O)O)c2cc(F)ccc2/C1=C\c1ccc(S(C)(=O)=O)cc1 [EXISULIND] | Not Active
4 | Nc1nc2c(c(=O)[nH]1)N(C=O)C(CNc1ccc(C(=O)N[C@@H](CCC(=O)O)C(=O)O)cc1)CN2 (stereo not given in full) [LEUCOVORIN] | Not Active
5 | C[C@@H](O)[C@H]1C(=O)N2C(C(=O)O)=C(S[C@@H]3CN[C@H](C(=O)N(C)C)C3)[C@H](C)[C@H]12 [MEROPENEM] | Not Active
6 | O=P(O)(O)C(O)(Cc1cccnc1)P(=O)(O)O [RISEDRONIC ACID] | Not Active

Biological target: Cytochrome P450 2C19 (Homo sapiens, UniProt P33261); note: in other assays of this panel Not Active means under 50% inhibition at 10 µM
Assay: not given
Conditions: bti-tn-5b1-4

Chain of Cytochrome P450 2C19 (P33261 whole entry): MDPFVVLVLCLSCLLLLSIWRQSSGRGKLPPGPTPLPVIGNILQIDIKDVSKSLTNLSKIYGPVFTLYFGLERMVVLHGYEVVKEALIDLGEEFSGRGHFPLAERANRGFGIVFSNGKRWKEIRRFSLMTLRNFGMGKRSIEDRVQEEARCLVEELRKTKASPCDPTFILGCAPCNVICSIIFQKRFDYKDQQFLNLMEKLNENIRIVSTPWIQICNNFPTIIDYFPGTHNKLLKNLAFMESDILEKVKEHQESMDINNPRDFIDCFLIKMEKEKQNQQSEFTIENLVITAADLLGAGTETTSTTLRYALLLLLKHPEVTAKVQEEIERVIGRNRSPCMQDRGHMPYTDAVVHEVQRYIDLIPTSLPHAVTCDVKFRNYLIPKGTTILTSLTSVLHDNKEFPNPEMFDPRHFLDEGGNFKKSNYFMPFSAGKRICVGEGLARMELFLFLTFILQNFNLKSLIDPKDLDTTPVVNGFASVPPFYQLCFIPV

Row | SMILES | IC50 | Ki
7 | CNS(=O)(=O)Cc1ccc2[nH]cc(CCN(C)C)c2c1 | Not Active | Not Active
8 | CCCc1nn(C)c2c(=O)[nH]c(-c3cc(S(=O)(=O)N4CCN(C)CC4)ccc3OCC)nc12 | Not Active | Not Active
9 | CC1=C(CC(=O)O)c2cc(F)ccc2/C1=C\c1ccc(S(C)(=O)=O)cc1 [EXISULIND] | Not Active | Not Active
10 | Nc1nc2c(c(=O)[nH]1)N(C=O)C(CNc1ccc(C(=O)N[C@@H](CCC(=O)O)C(=O)O)cc1)CN2 (stereo not given in full) [LEUCOVORIN] | Not Active | Not Active
11 | C[C@@H](O)[C@H]1C(=O)N2C(C(=O)O)=C(S[C@@H]3CN[C@H](C(=O)N(C)C)C3)[C@H](C)[C@H]12 [MEROPENEM] | Not Active | Not Active
12 | O=P(O)(O)C(O)(Cc1cccnc1)P(=O)(O)O [RISEDRONIC ACID] | Not Active | Not Active

System: not listed separately
Assay: DRUGMATRIX: Phosphodiesterase PDE4 enzyme inhibition (substrate: [3H]cAMP + cAMP)
Conditions: u-937; Not Active = under 50% inhibition at 10 µM

Row | SMILES | IC50 | Ki
13 | CNS(=O)(=O)Cc1ccc2[nH]cc(CCN(C)C)c2c1 | Not Active | Not Active
14 | CCCc1nn(C)c2c(=O)[nH]c(-c3cc(S(=O)(=O)N4CCN(C)CC4)ccc3OCC)nc12 | Not Active | Not Active
15 | CC1=C(CC(=O)O)c2cc(F)ccc2/C1=C\c1ccc(S(C)(=O)=O)cc1 [EXISULIND] | Not Active | Not Active
16 | Nc1nc2c(c(=O)[nH]1)N(C=O)C(CNc1ccc(C(=O)N[C@@H](CCC(=O)O)C(=O)O)cc1)CN2 (stereo not given in full) [LEUCOVORIN] | Not Active | Not Active
17 | C[C@@H](O)[C@H]1C(=O)N2C(C(=O)O)=C(S[C@@H]3CN[C@H](C(=O)N(C)C)C3)[C@H](C)[C@H]12 [MEROPENEM] | Not Active | Not Active
18 | O=P(O)(O)C(O)(Cc1cccnc1)P(=O)(O)O [RISEDRONIC ACID] | Not Active | Not Active

Biological target: T2, Thromboxane-A synthase (Homo sapiens, UniProt P24557);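 note: enzyme inhibition assay with PGH2 supplied as substrate; in other assays of this panel Not Active means under 50% inhibition at 10 µM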
T2 sequence (P24557 whole entry): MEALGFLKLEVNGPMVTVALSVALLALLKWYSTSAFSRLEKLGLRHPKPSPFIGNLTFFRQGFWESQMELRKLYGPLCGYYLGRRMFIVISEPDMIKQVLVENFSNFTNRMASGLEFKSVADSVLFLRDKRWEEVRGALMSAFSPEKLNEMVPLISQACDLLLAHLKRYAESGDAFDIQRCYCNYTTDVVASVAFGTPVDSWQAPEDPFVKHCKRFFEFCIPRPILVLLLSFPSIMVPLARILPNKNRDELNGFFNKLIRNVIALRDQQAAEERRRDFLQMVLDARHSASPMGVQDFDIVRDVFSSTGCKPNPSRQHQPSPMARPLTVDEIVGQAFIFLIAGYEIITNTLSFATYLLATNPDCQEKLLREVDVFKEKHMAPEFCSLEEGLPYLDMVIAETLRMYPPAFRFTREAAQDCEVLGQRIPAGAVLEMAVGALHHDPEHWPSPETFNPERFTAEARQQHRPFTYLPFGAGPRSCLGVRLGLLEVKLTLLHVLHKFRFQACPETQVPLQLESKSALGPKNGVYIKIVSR
Assay: biochemical
Assay type: tissue-based, Platelet
Conditions: platelet

Row | SMILES | IC50
19 | CNS(=O)(=O)Cc1ccc2[nH]cc(CCN(C)C)c2c1 | Not Active
20 | CCCc1nn(C)c2c(=O)[nH]c(-c3cc(S(=O)(=O)N4CCN(C)CC4)ccc3OCC)nc12 | Not Active
21 | CC1=C(CC(=O)O)c2cc(F)ccc2/C1=C\c1ccc(S(C)(=O)=O)cc1 [EXISULIND] | Not Active
22 | Nc1nc2c(c(=O)[nH]1)N(C=O)C(CNc1ccc(C(=O)N[C@@H](CCC(=O)O)C(=O)O)cc1)CN2 (stereo not given in full) [LEUCOVORIN] | Not Active
23 | C[C@@H](O)[C@H]1C(=O)N2C(C(=O)O)=C(S[C@@H]3CN[C@H](C(=O)N(C)C)C3)[C@H](C)[C@H]12 [MEROPENEM] | Not Active
24 | O=P(O)(O)C(O)(Cc1cccnc1)P(=O)(O)O [RISEDRONIC ACID] | Not Active

Biological target: T3, Alpha-1B adrenergic receptor (Rattus norvegicus, UniProt P15823)
T3 sequence (P15823 whole entry): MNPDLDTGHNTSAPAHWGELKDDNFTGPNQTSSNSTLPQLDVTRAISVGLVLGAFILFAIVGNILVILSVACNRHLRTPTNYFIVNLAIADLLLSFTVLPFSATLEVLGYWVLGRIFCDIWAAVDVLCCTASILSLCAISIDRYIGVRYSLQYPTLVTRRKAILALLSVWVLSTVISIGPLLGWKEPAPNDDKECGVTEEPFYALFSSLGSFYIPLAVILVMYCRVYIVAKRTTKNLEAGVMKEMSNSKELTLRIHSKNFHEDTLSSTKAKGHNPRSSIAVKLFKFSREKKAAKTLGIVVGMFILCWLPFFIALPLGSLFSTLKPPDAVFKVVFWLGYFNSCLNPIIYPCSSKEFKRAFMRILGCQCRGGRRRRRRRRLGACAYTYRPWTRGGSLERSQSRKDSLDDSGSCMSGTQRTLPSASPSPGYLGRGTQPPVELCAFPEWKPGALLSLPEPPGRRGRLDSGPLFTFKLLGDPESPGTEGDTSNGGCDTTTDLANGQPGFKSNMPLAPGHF
Assay: DRUGMATRIX: Alpha-1B adrenergic receptor radioligand binding (ligand: prazosin)
Assay type: cell membranes, Wistar, Liver, Membrane
Conditions: Not Active = under 50% inhibition at 10 µM

Row | SMILES | IC50
25 | CNS(=O)(=O)Cc1ccc2[nH]cc(CCN(C)C)c2c1 | Not Active
26 | CC1=C(CC(=O)O)c2cc(F)ccc2/C1=C\c1ccc(S(C)(=O)=O)cc1 [EXISULIND] | Not Active
27 | Nc1nc2c(c(=O)[nH]1)N(C=O)C(CNc1ccc(C(=O)N[C@@H](CCC(=O)O)C(=O)O)cc1)CN2 (stereo not given in full) [LEUCOVORIN] | Not Active
28 | C[C@@H](O)[C@H]1C(=O)N2C(C(=O)O)=C(S[C@@H]3CN[C@H](C(=O)N(C)C)C3)[C@H](C)[C@H]12 [MEROPENEM] | Not Active
29 | O=P(O)(O)C(O)(Cc1cccnc1)P(=O)(O)O [RISEDRONIC ACID] | Not Active

Same assay, conditions: Not Active = under 50% inhibition at 10 µM; read-out: IC50

Row | SMILES | IC50
30 | CCCc1nn(C)c2c(=O)[nH]c(-c3cc(S(=O)(=O)N4CCN(C)CC4)ccc3OCC)nc12 | 1460 nM

Same assay, conditions: Not Active = under 50% inhibition at 10 µM; read-out: Ki

Row | SMILES | Ki
31 | CCCc1nn(C)c2c(=O)[nH]c(-c3cc(S(=O)(=O)N4CCN(C)CC4)ccc3OCC)nc12 | 806 nM

Biological target: T4, Vasoactive intestinal polypeptide receptor 1 (Homo sapiens, UniProt P32241); note: in other assays of this panel Not Active means under 50% inhibition at 10 µM
T4 sequence (P32241 whole entry): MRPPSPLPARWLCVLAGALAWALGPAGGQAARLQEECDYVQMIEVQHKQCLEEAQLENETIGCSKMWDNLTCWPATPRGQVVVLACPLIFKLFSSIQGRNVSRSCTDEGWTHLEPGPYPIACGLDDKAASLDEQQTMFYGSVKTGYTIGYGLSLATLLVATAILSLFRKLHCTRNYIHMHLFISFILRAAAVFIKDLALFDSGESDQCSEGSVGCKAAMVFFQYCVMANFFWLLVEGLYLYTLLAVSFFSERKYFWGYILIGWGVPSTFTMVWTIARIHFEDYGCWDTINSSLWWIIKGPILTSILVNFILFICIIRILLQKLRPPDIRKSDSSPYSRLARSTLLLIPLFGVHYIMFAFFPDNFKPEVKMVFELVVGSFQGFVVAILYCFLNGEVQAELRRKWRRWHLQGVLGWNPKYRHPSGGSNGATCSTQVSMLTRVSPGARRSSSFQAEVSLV
Assay: not given
Assay type: cell membranes, Membrane
Conditions: ht-29

Row | SMILES | IC50
32 | CNS(=O)(=O)Cc1ccc2[nH]cc(CCN(C)C)c2c1 | Not Active
33 | CCCc1nn(C)c2c(=O)[nH]c(-c3cc(S(=O)(=O)N4CCN(C)CC4)ccc3OCC)nc12 | Not Active
34 | CC1=C(CC(=O)O)c2cc(F)ccc2/C1=C\c1ccc(S(C)(=O)=O)cc1 [EXISULIND] | Not Active
35 | Nc1nc2c(c(=O)[nH]1)N(C=O)C(CNc1ccc(C(=O)N[C@@H](CCC(=O)O)C(=O)O)cc1)CN2 (stereo not given in full) [LEUCOVORIN] | Not Active
36 | C[C@@H](O)[C@H]1C(=O)N2C(C(=O)O)=C(S[C@@H]3CN[C@H](C(=O)N(C)C)C3)[C@H](C)[C@H]12 [MEROPENEM] | Not Active
37 | O=P(O)(O)C(O)(Cc1cccnc1)P(=O)(O)O [RISEDRONIC ACID] | Not Active

Biological target: T5, C-X-C chemokine receptor type 2 (Homo sapiens, UniProt P25025); note: in other assays of this panel Not Active means under 50% inhibition at 10 µM
T5 sequence (P25025 whole entry): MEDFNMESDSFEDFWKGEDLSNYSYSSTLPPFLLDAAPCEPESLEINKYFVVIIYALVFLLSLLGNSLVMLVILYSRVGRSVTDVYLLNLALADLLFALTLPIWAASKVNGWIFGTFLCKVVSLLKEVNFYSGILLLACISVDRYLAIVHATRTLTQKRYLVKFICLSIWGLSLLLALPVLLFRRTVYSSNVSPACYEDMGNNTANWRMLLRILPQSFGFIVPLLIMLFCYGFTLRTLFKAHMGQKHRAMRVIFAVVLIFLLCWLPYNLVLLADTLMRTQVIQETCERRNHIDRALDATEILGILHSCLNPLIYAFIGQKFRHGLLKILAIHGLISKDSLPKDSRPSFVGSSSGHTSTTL
Assay: not given
Assay type: cell membranes, Membrane
Conditions: cho-k1

Row | SMILES | IC50
38 | CNS(=O)(=O)Cc1ccc2[nH]cc(CCN(C)C)c2c1 | Not Active
39 | CCCc1nn(C)c2c(=O)[nH]c(-c3cc(S(=O)(=O)N4CCN(C)CC4)ccc3OCC)nc12 | Not Active
40 | CC1=C(CC(=O)O)c2cc(F)ccc2/C1=C\c1ccc(S(C)(=O)=O)cc1 [EXISULIND] | Not Active
41 | Nc1nc2c(c(=O)[nH]1)N(C=O)C(CNc1ccc(C(=O)N[C@@H](CCC(=O)O)C(=O)O)cc1)CN2 (stereo not given in full) [LEUCOVORIN] | Not Active
42 | C[C@@H](O)[C@H]1C(=O)N2C(C(=O)O)=C(S[C@@H]3CN[C@H](C(=O)N(C)C)C3)[C@H](C)[C@H]12 [MEROPENEM] | Not Active
43 | O=P(O)(O)C(O)(Cc1cccnc1)P(=O)(O)O [RISEDRONIC ACID] | Not Active
